Source: paper PMC6272242, “Topical Anti-inflammatory Activity of New Hybrid Molecules of Terpenes and Synthetic Drugs” (Molecules, 2015)

Experiments:
lung fibroblasts (MRC-5) = experiment: Cytotoxicity, MTT reduction assay, MRC-5; format: cell-based; conditions: Homo sapiens, MRC5, confluent cultures, 24 h, read-out: IC50 ± SD, MRC-5
Experimental: (§1) The human cell lines, MRC-5 normal lung fibroblasts (CCL-171), AGS gastric epithelial adenocarcinoma cells (CRL-1739) and HepG2 hepatocellular carcinoma cells (HB-8065) were obtained from the American Type Culture Collection (ATCC, Manasas, VA, USA). The cells were grown as monolayers in the following media: MRC-5 and HepG2 in MEM and AGS in Ham F-12. The MEM medium contained 2 mM L-glutamine, 1 mM sodium pyruvate and 1.5 g/L sodium bicarbonate. Ham F-12 was supplemented with 2 mM L-glutamine and 1.5 g/L sodium bicarbonate. Both media were supplemented with 10% heat inactivated fetal bovine serum, 100 IU/mL penicillin and 100 µg/mL streptomycin in a humidified incubator with 5% CO2 in air at 37 °C. For the experiments, cells were plated at a density of 25,000 cells/mL in 96-well plates. […] Compounds were first dissolved in DMSO and then in medium. The final concentration of DMSO in the test medium and controls was 1%. […] The cell viability for each compound was calculated comparing the cell viability of the untreated controls (100%) with the cell viability of the different concentrations of each compound. Each concentration was tested in quadruplicate together with the control and repeated three times in separate experiments. Cell viability was determined at the end of the incubation by means of the MTT reduction assay. Results were converted to percentage of controls, and the IC50 values were graphically obtained from the dose-response curves. Culture media, antibiotics and fetal bovine serum were obtained from Invitrogen Corp. (Waltham, MA, USA). Other reagents were purchased from Sigma Chemical Co. For the animal experiments all values are presented as median ± SEM. Drug-induced changes were statistically estimated using the Kruskall-Wallis test for comparison between groups and testing, and the Mann-Whitney test was used in the independent data for individual comparisons. The effects were considered significant if p ≤ 0.05. For cytotoxicity experiments, each concentration was tested in quadruplicate together with the control and repeated three times in different experiments. Results are expressed as IC50 values (µM) ± S.D.

hepatocytes HepG2 = experiment: Cytotoxicity, MTT reduction assay, HepG2; format: cell-based; conditions: Homo sapiens, confluent cultures, 24 h, read-out: IC50 ± SD, HepG2
Experimental: as §1, with “Results were converted to percentage of controls, and the IC50 values were graphically obtained from the dose-response curves.” left out

[1] = system: acetic acid-induced writhing; design: method as in PMID 12767601; conditions: oral administration, ibuprofen at 40 mg/kg; cited from earlier work
[2] = system: human lung fibroblasts (MRC-5), gastric epithelial cells (AGS) and hepatocytes HepG2; experiment: Cytotoxicity, MTT reduction assay, summary over the three cell lines; format: cell-based; conditions: for IC50: Homo sapiens, MRC-5, AGS and HepG2, 24 h, MTT, read-out: IC50 values, range over the three cell lines
Experimental: as §1

[3] = system: mice ear edema induced by 12-O-tetradecanoylphorbol 13-acetate; experiment: Topical anti-inflammatory effect, 12-O-tetradecanoylphorbol 13-acetate (TPA) induced ear edema in mice; format: in vivo; conditions: 1.4 µmol/mouse, 6 h after TPA, n = 8, read-out: % TATPA ± SEM (percent reduction of the ear edema, TPA)
Experimental: (§2) The inflammatory agent arachidonic acid (AA) and phorbol 12-myristate 13-acetate (TPA) were used to assess the anti-inflammatory effect/action mechanism of the starting compounds, new synthetic products and reference drugs. […] Adult male CF-1 mice (20–25 g), obtained from a stock maintained at the Chilean Public Health Institute, were used to assess the anti-inflammatory effect. All animals were housed in a climate- and light-controlled room with a 12 h light-dark cycle, fasted overnight before the day of the assays, with free access to water. The anti-inflammatory activity of each compound was evaluated in groups of 8 treated and 16 control mice. Due to ethical considerations, the number of animals was kept to a minimum and single dose experiments were carried out.
(§3) The pro-inflammatory agents TPA and AA, the reference drugs indomethacin and nimesulide were from Sigma. […] After 5 min, inflammation was induced by the application of 20 µL TPA or AA (5 mg/mL) in acetone. […] Control subjects only received TPA or AA. Both, the sample and the TPA or AA, were applied to the inner (10 µL) and outer (10 µL) surfaces of the right ear. The left ear only received acetone. Mice were sacrificed by cervical dislocation (after 6 h of TPA and 1 h AA), and a 6 mm diameter section of the right and left ears were cut and weighed. The weight differences between both ear sections correspond to the edema value. The percent topical anti-inflammatory activity (TA) was evaluated according to the following equation: (1) %TA=[ Wc−Ws/Wc]× 100 where Wc and Ws are the different median values of the weights of the right and the left ear sections of the control and the treated animals, respectively.
(§4) For the animal experiments all values are presented as median ± SEM. Drug-induced changes were statistically estimated using the Kruskall-Wallis test for comparison between groups and testing, and the Mann-Whitney test was used in the independent data for individual comparisons. The effects were considered significant if p ≤ 0.05. For cytotoxicity experiments, each concentration was tested in quadruplicate together with the control and repeated three times in different experiments. Results are expressed as IC50 values (µM) ± S.D.

xylene-induced ear edema = system: xylene-induced ear edema; design: method as in PMID 16806590; conditions: mice; cited from earlier work
[4] = system: gastric epithelial cells (AGS); experiment: Cytotoxicity, MTT reduction assay, AGS; format: cell-based; conditions: Homo sapiens, Epithelial cell, confluent cultures, 24 h, read-out: IC50 ± SD, AGS
Experimental: as §1

[5] = system: mice ear edema induced by arachidonic acid; experiment: Topical anti-inflammatory effect, arachidonic acid (AA) induced ear edema in mice; format: in vivo; conditions: 3.2 µmol/mouse; for inhibition in vivo at 3.2 µmol/animal: 1 h after AA, n = 8, read-out: % TAAA ± SEM (percent reduction of the ear edema, arachidonic acid)
Experimental: as §2, §3, §4

Compound	IC50 (lung fibroblasts (MRC-5)) [µM]	IC50 (hepatocytes HepG2) [µM]	Reduction of stretches [1] [%]	IC50 [2] [µM]	inhibition in vivo at 1.4 µmol/animal [3] [%]	Reduction of xylene-induced ear edema (xylene-induced ear edema) [%]	IC50 [4] [µM]	Activity in the AA model, in words [5]	inhibition in vivo at 3.2 µmol/animal [5] [%]	Cytotoxic effect, in words ([2]; MRC-5, AGS and HepG2)
CC(C)Cc1ccc(C(C)C(=O)O)cc1 (centres unmarked) [Compound 4, ibuprofen, reference compound]	> 1000	> 1000	77.6	> 1000	56.2 ± 3.4	45.9	> 1000	inactive	7.2 ± 5.5	
ibuprofen propyl glucopyranoside ester						52.7				
C=C1CCC2[C@](C)(CCC[C@]2(C)C(=O)O)[C@H]1CC[C@@H](C)CCOC(=O)[C@@H](C)c1ccc2cc(OC)ccc2c1 (some centres unmarked) [Compound 10, Imbricatol-15-yl naproxenate]	37 ± 2	69 ± 4		29 to 69	37.7 ± 3.3		29 ± 2		16.3 ± 3.8	
C=C1CCC2[C@](C)(CCC[C@]2(C)C(=O)OC)[C@H]1CC[C@@H](C)CCOC(=O)[C@@H](C)c1ccc2cc(OC)ccc2c1 (some centres unmarked) [Compound 11, Imbricatol-15-yl naproxenate methyl ester]	907 ± 54	> 1000		≥ 601	42.7 ± 8.3		601 ± 25		20 ± 9.4	
C=C1CC[C@@H]2[C@](C)(CCC[C@]2(C)C(=O)O)[C@H]1CC[C@H](C)CCO [Compound 2, imbricatolic acid, reference compound]	134 ± 7	111 ± 7		111 to 148	10.1 ± 4		148 ± 9		5 ± 3	moderate
